Assay results from PubChem BioAssay AID1845217 (Molecular Pharmacology Branch, DTP, NCI, 2023).
Where “and” joins values, the source holds several entries; their conditions need not be identical. Equal values may be shown once. Calls of active or inactive are those of the source. The calls were made as follows: active = viability on the fitted dose curve at most 10% of control; inactive = the rest.

Test system: VA-ES-BJ tumor spheroid viability
Assay: Anticancer human tumor VA-ES-BJ cell line growth inhibition;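 as to IC50: spheroids exposed to compounds for seven days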;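 as to viability, T/C: spheroids exposed to compounds for seven days; percent of DMSO vehicle control viability so 100% = untreated growth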
Conditions: spheroids with HUVEC and MSC; for viability, T/C: stronger effect = lower value
Source text: Multicellular complex tumor spheroid response to DNA repair inhibitors in combination with DNA-damaging drugs
This study explores the anticancer activities of DNA-damaging drugs and inhibitors of DNA damage repair, both as single agents and in combinations. Complex tumor spheroids comprised of malignant cells, endothelial cells and mesenchymal stem cells served as an in vitro model for human solid tumors. This model system incorporates physiologically relevant features and patient-derived or established malignant cell lines with clinically relevant genetic alterations from many tumor types. Twenty-six patient-derived or established malignant cell lines were evaluated representing sarcoma, melanoma, small cell lung cancer (SCLC), non-small cell lung cancer (NSCLC), as well as bladder, ovarian and pancreatic cancers. The concentration ranges selected for each drug and investigational agent were based upon clinically achievable concentrations if the clinical Cmax of the agent was known.
Compounds. The drugs and compounds olaparib (NSC753686), talazoparib (NSC767125), berzosertib (NSC777718), elimusertib (NSC800525), nedisertib (NSC802822), VX-984 (NSC792969), AZD-1390 (NSC803789), temozolomide (NSC362856), topotecan (NSC609699), trabectedin (NSC813783), staurosporine (NSC755774), and gemcitabine (NSC613327) were obtained from the National Cancer Institute (NCI) Developmental Therapeutics Program Chemical Repository. The FDA-approved anticancer drug set is available from the Developmental Therapeutics Program at https://dtp.cancer.gov/organization/dscb/obtaining/available_plates.htm. […] The stock solutions were prepared in dimethyl sulfoxide (DMSO, Sigma-Aldrich, St. Louis, MO, cat. D2650) at 400-fold the tested concentration and stored at -70 degrees C. Prior to their use, the stock solutions were diluted in fresh medium and the final DMSO concentration in the assay was 0.25% (v/v). All drugs and investigational agents were tested over a range starting from a high concentration at or near the clinical Cmax and decreasing in half-log increments. If the clinical Cmax for an agent had not been determined, the highest concentration tested was 10 microM.
Cell Lines. The patient-derived cancer cell (PDC) lines: 156681-154-R-J1-PDC, 283228-195-R-J1-PDC, 287954-098-R-J1-PDC, 292921-168-R-J2-PDC, 349418-098-R-PDC, 425362-245-T-J1-PDC, 556581-035-R-J1-PDC, and BL0293-F563-PDC were received from the NCI Patient-Derived Models Repository (PDMR, https://pdmr.cancer.gov). The established cell lines HS-SY-2 (RRID:CVCL_8719), MPNST, and SYO-1 (RRID:CVCL_7146) were obtained from the Sloan Kettering Institute. The alveolar soft parts sarcoma cell line ASPS-1 (RRID:CVCL_S738) was established at the NCI and grown from internal seed stocks. The following established cell lines were purchased from the American Type Culture Collection (ATCC, Manassas, VA): G-401 (ATCC, cat. CRL-1441, RRID:CVCL_0270), SW982 (ATCC, cat. HTB-93, RRID:CVCL_1734), VA-ES-BJ (ATCC, cat. CRL-2138, RRID:CVCL_1785), NCI-H719 (ATCC, cat. CRL-5837, RRID:CVCL_1582), NCI-H196 (ATCC, cat. CRL-5823, RRID:CVCL_1509), NCI-H841 (ATCC, cat. CRL-5845, RRID:CVCL_1595), NCI-H1618 (ATCC, cat. CRL-5879, RRID:CVCL_1480), NCI-H1876 (ATCC, cat. CRL-5902, RRID:CVCL_1503), DMS 114 (ATCC, cat. CRL-2066; RRID:CVCL_1174), NCI-H211 (ATCC, cat. CRL-5824; RRID:CVCL_1529), and SW 1271 (ATCC, cat. CRL-2177, RRID:CVCL_1716). The small cell lung cancer cell line COR-L88 was purchased from Sigma-Aldrich (cat. 92031917-1VL, RRID:CVCL_1141). The non-small cell lung cancer cell lines NCI-H226 (RRID:CVCL_1544) and NCI-H322M (RRID:CVCL_1557) were established at the NCI and grown from internal seed stocks. Pooled donor human umbilical vein endothelial cells (HUVEC, Lonza, cat. CC-2519) and human mesenchymal stem cells (hMSC, Lonza, cat. PT-2501) were purchased from Lonza (Walkersville, MD).
Cell Culture. All cells were maintained in an incubator at 37 degrees C and 5% CO2 with 95% humidity. […]

[1] = compound alone, run of 12/02/2019
[2] = compound alone, run of 12/12/2019

Row | Structure (SMILES) | viability, T/C (compound 0.0316 µM) | viability, T/C (compound 0.1 µM) | viability, T/C (compound 0.316 µM) | viability, T/C (compound 1 µM) | viability, T/C (compound 3.16 µM) | viability, T/C (compound 10 µM) | IC50 (curve of compound) | viability, T/C (compound 0.0949 µM) | viability, T/C (compound 0.3 µM) | viability, T/C (compound 0.949 µM) | viability, T/C (compound 3 µM) | other results
1 | CC(C)n1c(=O)n(C)c2cnc3cc(F)c(-c4ccc(OCCCN5CCCCC5)nc4)cc3c21 | 77.7% and 93.7% and 97.1% | 74.2% and 93.9% and 95.2% | 73.1% and 90.5% and 92.7% | 85.2% and 100% and 99% | 91.6% and 105% (2×) | 59.8% and 65.4% and 71.2% | > 10000 nM |  |  |  |  | 
2 | CC1COCCN1c1cc(-c2ccnn2C)c2ccnc(-c3ccn[nH]3)c2n1 (stereo not drawn) | 9.71% and 87.1% and 84.4% |  | 9.14% and 23.2% and 30.3% | 5.45% and 9.1% and 11% | 5.18% and 6.34% and 6.93% | 4.89% and 6.26% and 6.35% | < 31.6 nM and 110 nM and 153 nM |  |  |  |  | 
3 | CC[C@@]1(O)C(=O)OCc2c1cc1n(c2=O)Cc2cc3c(CN(C)C)c(O)ccc3nc2-1 |  |  |  |  |  |  |  | 7.65% [middle of 10 runs] | 5.65% [middle of 10 runs] |  |  | viability, T/C (compound 0.003 µM): 94% [middle of 10 runs]; IC50 [1]: 21.8 nM [middle of 5 runs]; IC50 [2]: 28.5 nM [middle of 5 runs]
4 | CNCc1ccc(-c2cc(-c3nc(-c4ccc(S(=O)(=O)C(C)C)cc4)cnc3N)on2)cc1 |  |  |  |  |  |  | 289 nM and 399 nM and 235 nM | 76% and 74.3% and 83% | 48.9% and 63.3% and 41% | 9.28% and 11.6% and 7.52% | 2.21% and 6.18% and 1.41% | viability, T/C (compound 0.00949 µM): 77.7% and 86.1% and 87.9%; viability, T/C (compound 0.03 µM): 77.8% and 85% and 86.1%
5 | COc1cc(C)[nH]c(=O)c1CN1CCc2c(Cl)cc(C(OC)C3COC3)c(Cl)c2C1=O (stereo not drawn) | 90.1% and 94.4% | 60.6% and 79.6% and 86.1% | 62.8% and 67% and 69.9% | 50.1% and 56.3% and 63.1% | 44.1% and 54.4% and 58.9% | 41.7% and 49.4% and 52.7% | 1550 nM and > 10000 nM |  |  |  |  | outcome (compound 0.0316 µM): inactive
6 | COc1cc2c(cc1O)CCNC21CSC2c3c(OC(C)=O)c(C)c4c(c3C(COC1=O)N1C(O)C3Cc5cc(C)c(OC)c(O)c5C(C21)N3C)OCO4 (stereo not drawn) |  |  |  |  |  |  |  |  |  |  |  | viability, T/C (compound 0.000949 µM): 2.96% [middle of 10 runs]; viability, T/C (compound 0.003 µM): 1.18% [middle of 9 runs]; IC50 [2]: 0.256 nM [middle of 10 runs]
7 | COc1ccc([C@@H](O)c2cc(-c3ncnc4cc(N5CCOCC5)ccc34)c(F)cc2Cl)nn1 | 99.7% and 97.1% and 92.4% | 113% and 95.6% and 88.6% | 71.4% and 65.5% and 79.8% | 45.9% and 32.2% and 52% | 17.3% and 11.2% and 21.3% | 10.2% and 6.84% and 8.9% | 780 nM and 549 nM and 1080 nM |  |  |  |  | 
8 | Cc1cc(C)c(CNC(=O)c2cc(-c3ccc(CN4CCOCC4)cc3)cc3c2cnn3C2CCCC2)c(=O)[nH]1 | 101% and 98% and 103% | 100% and 106% and 101% | 98.5% and 97.2% and 99.1% | 103% (2×) and 100% | 102% and 107% and 112% | 91.8% and 91.9% and 104% | > 10000 nM |  |  |  |  | 
9 | Cc1sc2c(c1C)C(c1ccc(Cl)cc1)=NC(CC(=O)Nc1ccc(O)cc1)c1nnc(C)n1-2 (stereo not drawn) |  |  |  |  |  |  | 84.1 nM and 60.9 nM and 73.1 nM | 47.3% and 45% and 46.2% | 30.5% and 32.6% and 28.8% | 25.7% and 24.2% and 20.7% | 18.6% and 22.5% and 15.8% | viability, T/C (compound 0.00949 µM): 72.1% and 86.4% and 77.2%; viability, T/C (compound 0.03 µM): 66.8% and 59.2% and 64.1%
10 | Cn1ncnc1[C@H]1c2n[nH]c(=O)c3cc(F)cc(c23)N[C@@H]1c1ccc(F)cc1 |  |  |  |  |  |  | 400 nM and 619 nM and 469 nM | 68.5% and 82.6% and 74.7% | 55.8% and 65.9% and 58.5% | 33.7% and 41.4% and 36% | 7.23% and 7.48% and 6.56% | viability, T/C (compound 0.00949 µM): 82.2% and 101% and 87.7%; viability, T/C (compound 0.03 µM): 81.7% and 78.2% and 85.3%
11 | Cn1nnc2c(C(N)=O)ncn2c1=O |  |  |  | 104% [middle of 10 runs] | 103% [middle of 10 runs] | 107% [middle of 10 runs] |  |  |  |  |  | viability, T/C (compound 100 µM): 104% [middle of 10 runs]; IC50 [1]: > 100000 nM
12 | O=C(c1cc(Cc2n[nH]c(=O)c3ccccc23)ccc1F)N1CCN(C(=O)C2CC2)CC1 |  |  |  |  |  |  | > 30000 nM and 25800 nM | 113% and 96.3% and 94.1% | 98.4% and 84.9% and 93.2% | 101% and 89.1% and 92.5% | 98.7% and 88% and 87% | viability, T/C (compound 9.49 µM): 74.6% and 71.3% and 67.4%; viability, T/C (compound 30 µM): 67.4% and 52.5% and 47.3%
13 | [2H]c1nc(C)nc([2H])c1-c1cc(NC[C@@H](C)c2cccc3c(C(=O)NC)ccnc23)ncn1 | 70.8% and 104% and 89.9% | 77.2% and 94.7% and 88.6% | 80% and 92.6% and 90.8% | 79.4% and 104% and 99.8% | 86.9% and 95.6% and 103% | 83.2% and 99.6% and 104% | > 10000 nM |  |  |  |  | 
